Results as given in US9695154B2, “Heteroaryl inhibitors of sumo activating enzyme” (MILLENNIUM PHARMACEUTICALS, INC., priority 2013, dated 2017).
Counter-ions that a name gives are not always drawn.

Molecular target: T1, recombinant human SAE enzyme (Homo sapiens, UniProt Q9UBT2)
T1 sequence (Q9UBT2 1-640): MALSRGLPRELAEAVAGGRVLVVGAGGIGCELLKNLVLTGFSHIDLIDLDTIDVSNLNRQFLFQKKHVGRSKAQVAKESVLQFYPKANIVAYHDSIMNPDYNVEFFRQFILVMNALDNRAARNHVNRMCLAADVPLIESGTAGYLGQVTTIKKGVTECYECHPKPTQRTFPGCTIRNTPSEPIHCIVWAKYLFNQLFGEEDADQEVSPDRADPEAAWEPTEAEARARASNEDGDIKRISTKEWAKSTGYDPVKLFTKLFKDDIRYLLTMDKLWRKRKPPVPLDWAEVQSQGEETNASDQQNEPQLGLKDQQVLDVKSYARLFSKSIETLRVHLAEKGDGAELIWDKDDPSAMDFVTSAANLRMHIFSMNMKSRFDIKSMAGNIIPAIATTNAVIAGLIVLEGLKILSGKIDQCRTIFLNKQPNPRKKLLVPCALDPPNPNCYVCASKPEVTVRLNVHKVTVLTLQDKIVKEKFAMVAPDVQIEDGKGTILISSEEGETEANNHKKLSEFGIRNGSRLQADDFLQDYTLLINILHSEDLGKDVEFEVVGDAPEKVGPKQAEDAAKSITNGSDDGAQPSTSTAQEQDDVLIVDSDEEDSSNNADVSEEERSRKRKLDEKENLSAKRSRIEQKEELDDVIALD
T1 sequence (Q9UBE0 1-346 partner): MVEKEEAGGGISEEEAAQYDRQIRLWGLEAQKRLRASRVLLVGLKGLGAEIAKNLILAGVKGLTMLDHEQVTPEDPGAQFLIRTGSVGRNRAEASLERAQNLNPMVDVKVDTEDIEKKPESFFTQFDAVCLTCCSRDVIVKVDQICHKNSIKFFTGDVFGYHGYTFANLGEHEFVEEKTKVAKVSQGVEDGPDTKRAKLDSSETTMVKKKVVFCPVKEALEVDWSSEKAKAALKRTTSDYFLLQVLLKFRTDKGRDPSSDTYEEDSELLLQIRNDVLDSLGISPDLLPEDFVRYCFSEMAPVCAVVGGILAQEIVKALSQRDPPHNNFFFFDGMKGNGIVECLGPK
Assay: SAE HTRF Enzyme Assay
Type: biochemical
Conditions: for IC50: class symbols A-C; for inhibition at 0.111 µM: compound concentration 0.111 μM, read-out: Percent Inhibition
In short: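 Reaction with 0.11 nM recombinant human SAE, 0.5 μM ATP, 0.01 μM Ubc9-GST, 0.125 μM Sumo-Flag in HEPES pH 7.5, MgCl2, GSH, BSA, 105 min at 24 °C. Stopped with EDTA/KF buffer carrying Eu-anti-Flag and anti-GST-APC; HTRF read after 2 h; % inhibition or IC50.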

## NS(=O)(=O)OC[C@H]1C[C@@H](Nc2ncncc2C(=O)c2ccn(Cc3cccc(F)c3)n2)C[C@@H]1O [Compound I-165, {(1R,2S,4R)-4-[(5-{[1-(3-fluorobenzyl)-1H-pyrazol-3-yl]carbony1}pyrimidin-4-yl)amino]-2-hydroxycyclopentyl}methyl sulfamate]
  IC50: < 10 nM
  inhibition at 0.111 µM: 98%

## NS(=O)(=O)OC[C@H]1C[C@@H](Nc2ncncc2C(=O)c2ccn(CCc3cccc4ccccc34)n2)[C@H](O)[C@@H]1O [Compound I-118, [(1R,2R,3S,4R)-2,3-dihydroxy-4-{[5-({1-[2-(1-naphthyl)ethyl]-1H-pyrazol-3-yl}carbonyl)pyrimidin-4-yl]amino}cyclopentyl]methyl sulfamate]
  IC50: < 10 nM
  inhibition at 0.111 µM: 99%

## NS(=O)(=O)OC[C@H]1C[C@@H](Nc2ncncc2C(=O)c2ccn(Cc3ccccc3Cl)n2)[C@H](O)[C@@H]1O [Compound I-193, ((1R,2R,3S,4R)-4-((5-(1-(2-Chlorobenzyl)-1H-pyrazole-3-carbonyl)pyrimidin-4-yl)amino)-2,3-dihydroxycyclopentyl)methyl sulfamate]
  IC50: < 10 nM
  inhibition at 0.111 µM: 99%

## N[C@@H]1[C@H](O)[C@@H](COS(N)(=O)=O)C[C@H]1Nc1ncncc1C(=O)c1ccn(Cc2cccc(Br)c2)n1 [Compound I-370, {(1R,2R,3S,4R)-3-amino-4-[(5-{[1-(3-bromobenzyl)-1H-pyrazol-3-yl]carbonyl}pyrimidin-4-yl)amino]-2-hydroxycyclopentyl}methyl sulfamate.2[HCl]]
  IC50: 10 to 100 nM
  inhibition at 0.111 µM: 78%

## NS(=O)(=O)OC[C@H]1C[C@@H](Nc2ncncc2C(=O)c2ccn(CC3CCCO3)n2)C[C@@H]1O (mixture of isomers) [Compound I-293, [(1R,2S,4R)-2-hydroxy-4-{[5-({1-[(2R)-tetrahydrofuran-2-ylmethyl]-1H-pyrazol-3-yl}carbonyl)pyrimidin-4-yl]amino}cyclopentyl]methyl sulfamate and [(1R,2S,4R)-2-hydroxy-4-{[5-({1-[(2S)-tetrahydrofuran-2-ylmethyl]-1H-pyrazol-3-yl}carbonyl)pyrimidin-4-yl]amino}cyclopentyl]methyl sulfamate]
  IC50: 100 to 1000 nM
  inhibition at 0.111 µM: 38%

## NS(=O)(=O)OC[C@H]1C[C@@H](Nc2ncncc2C(=O)c2ccn(Cc3ccncc3)n2)[C@H](O)[C@@H]1O [Compound I-160, {(1R,2R,3S,4R)-2,3-dihydroxy-4-[(5-{[1-(pyridin-4-ylmethyl)-1H-pyrazol-3-yl]carbonyl}pyrimidin-4-yl)amino]cyclopentyl}methyl sulfamate]
  IC50: 10 to 100 nM
  inhibition at 0.111 µM: 81%

## NS(=O)(=O)OC[C@H]1C[C@@H](Nc2ncncc2C(=O)c2ccn(Cc3c(F)cc(F)cc3F)n2)C[C@@H]1O [Compound I-286, {(1R,2S,4R)-2-hydroxy-4-[(5-{[1-(2,4,6-trifluorobenzyl)-1H-pyrazol-3-yl]carbonyl}pyrimidin-4-yl)amino]cyclopentyl}methyl sulfamate]
  IC50: < 10 nM
  inhibition at 0.111 µM: 93%

## NS(=O)(=O)OC[C@H]1C[C@@H](Nc2ncncc2C(=O)c2ccn(Cc3ccccc3OC(F)(F)F)n2)C[C@@H]1O [Compound I-39, [(1R,2S,4R)-2-hydroxy-4-{[5-({1-[2-(trifluoromethoxy)benzyl]-1H-pyrazol-3-yl}carbonyl)pyrimidin-4-yl]amino}cyclopentyl]methyl sulfamate]
  IC50: < 10 nM
  inhibition at 0.111 µM: 98%

## NS(=O)(=O)OC[C@H]1C[C@@H](Nc2ncncc2C(=O)c2ccn(Cc3cccc(N4CCOCC4)c3)n2)C[C@@H]1O [Compound I-251, [(1R,2S,4R)-2-hydroxy-4-{[5-({1-[3-(morpholin-4-yl)benzyl]-1H-pyrazol-3-yl}carbonyl)pyrimidin-4-yl]amino}cyclopentyl]methyl sulfamate]
  IC50: 10 to 100 nM
  inhibition at 0.111 µM: 71%

## NS(=O)(=O)OC[C@H]1C[C@@H](Nc2ncncc2C(=O)c2ccn(Cc3ccccc3F)n2)[C@H](O)[C@@H]1O [Compound I-338, {(1R,2R,3S,4R)-4-[(5-{[1-(2-fluorobenzyl)-1H-pyrazol-3-yl]carbonyl}pyrimidin-4-yl)amino]-2,3-dihydroxycyclopentyl}methyl sulfamate]
  IC50: < 10 nM
  inhibition at 0.111 µM: 99%

## NS(=O)(=O)OC[C@H]1C[C@@H](Nc2ncncc2C(=O)c2cc(Cl)n(Cc3ccc(F)c(Br)c3)c2)[C@@H](F)[C@@H]1O [Compound I-320, {(1R,2R,3R,4R)-4-[(5-{[1-(3-bromo-4-fluorobenzyl)-5-chloro-1H-pyrrol-3-yl]carbonyl}pyrimidin-4-yl)amino]-3-fluoro-2-hydroxycyclopentyl}methyl sulfamate]
  IC50: < 10 nM
  inhibition at 0.111 µM: 98%

## NS(=O)(=O)OC[C@H]1C[C@@H](Nc2ncncc2C(=O)c2ccn(Cc3ccc(Cl)c(Br)c3)c2)C[C@@H]1O [Compound I-43, {(1R,2S,4R)-4-[(5-{[1-(3-bromo-4-chlorobenzyl)-1H-pyrrol-3-yl]carbonyl}pyrimidin-4-yl)amino]-2-hydroxycyclopentyl}methyl sulfamate]
  IC50: < 10 nM
  inhibition at 0.111 µM: 98%

## N#Cc1ccccc1Cn1ccc(C(=O)c2cncnc2N[C@@H]2C[C@H](COS(N)(=O)=O)[C@@H](O)C2)n1 [Compound I-253, {(1R,2S,4R)-4-[(5-{[1-(2-cyanobenzyl)-1H-pyrazol-3-yl]carbonyl)pyrimidin-4-yl)amino]-2-hydroxycyclopentyl}methyl sulfamate]
  IC50: 10 to 100 nM
  inhibition at 0.111 µM: 91%

## Cc1cc(C(=O)c2cncnc2N[C@@H]2C[C@H](COS(N)(=O)=O)[C@@H](O)[C@H]2O)nn1Cc1ccc(C(F)(F)F)o1 [Compound I-138, [(1R,2R,3S,4R)-2,3-Dihydroxy-4-({5-[(5-methyl-1-{[5-(trifluoromethyl)-2-furyl]methyl}-1H-pyrazol-3-yl)carbonyl]pyrimidin-4-yl}amino)cyclopentyl]methyl sulfamate]
  IC50: < 10 nM
  inhibition at 0.111 µM: 99%

## NS(=O)(=O)OC[C@H]1C[C@@H](Nc2ncncc2C(=O)c2ccn(Cc3ccc(C(F)(F)F)cc3)n2)C[C@@H]1O [Compound I-171, [(1R,2S,4R)-2-hydroxy-4-{[5-({1-[4-(trifluoromethyl)benzyl]-1H-pyrazol-3-yl}carbonyl)pyrimidin-4-yl]amino}cyclopentyl]methyl sulfamate]
  IC50: < 10 nM
  inhibition at 0.111 µM: 95%

## NS(=O)(=O)OC[C@H]1C[C@@H](Nc2ncncc2C(=O)c2ccn(Cc3ccccc3)n2)[C@H](F)[C@@H]1O [Compound I-227, [(1R,2R,3S,4R)-4-({5-[(1-benzyl-1H-pyrazol-3-yl)carbonyl]pyrimidin-4-yl}amino)-3-fluoro-2-hydroxycyclopentyl]methyl sulfamate]
  IC50: < 10 nM
  inhibition at 0.111 µM: 97%

## C=CC(=O)N(C)c1cccc(Cn2ccc(C(=O)c3cncnc3N[C@@H]3C[C@H](COS(N)(=O)=O)[C@@H](O)[C@@H]3F)n2)c1 [Compound I-116, [(1R,2R,3R,4R)-4-({5-[(1-{3-[Acryloyl(methyl)amino]benzyl}-1H-pyrazol-3-yl)carbonyl]pyrimidin-4-yl}amino)-3-fluoro-2-hydroxycyclopentyl]methyl sulfamate]
  IC50: 100 to 1000 nM
  inhibition at 0.111 µM: 33%

## NS(=O)(=O)OC[C@H]1C[C@@H](Nc2ncncc2C(=O)c2ccn(Cc3csc4ccc(Cl)cc34)c2)C[C@@H]1O [Compound I-341, [(1R,2S,4R)-4-{[5-({1-[(5-chloro-1-benzothiophen-3-yl)methyl]-1H-pyrrol-3-yl}carbonyl)pyrimidin-4-yl]amino}-2-hydroxycyclopentyl]methyl sulfamate]
  IC50: < 10 nM
  inhibition at 0.111 µM: 98%

## NS(=O)(=O)OC[C@H]1C[C@@H](Nc2ncncc2C(=O)c2cc(C(F)(F)F)n(Cc3cccc(Cl)c3)n2)C[C@@H]1O [Compound I-170, {(1R,2S,4R)-4-[(5-{[1-(3-Chlorobenzyl)-5-(trifluoromethyl)-1H-pyrazol-3-yl]carbonyl}pyrimidin-4-yl)amino]-2-hydroxycyclopentyl}methyl sulfamate]
  IC50: < 10 nM
  inhibition at 0.111 µM: 97%

## NS(=O)(=O)OC[C@H]1C[C@@H](Nc2ncncc2C(=O)c2ccn(Cc3cccc(C(F)(F)F)n3)n2)C[C@@H]1O [Compound I-3, [(1R,2S,4R)-2-hydroxy-4-({5-[(1-{[6-(trifluoromethyl)pyridin-2-yl]methyl}-1H-pyrazol-3-yl)carbonyl]pyrimidin-4-yl}amino)cyclopentyl]methyl sulfamate]
  IC50: < 10 nM
  inhibition at 0.111 µM: 98%
